pIC50: −log10 of the molar value. Like-named read-outs stand apart in the source and are kept apart here.
Key:
hRORg = target: T1, hRORg (Homo sapiens, UniProt P51449); assay: GAL4-RORγ transactivation (luciferase reporter, HG5LN HeLa line); assay type: cell-based; conditions: HG5LN cells, 18 hours incubation, luciferase luminescence
T1 construct: expressed in transfected cells; host or cells: HG5LN (HeLa line with a GAL4-driven luciferase reporter)
T1 sequence (P51449 269-508 limits assumed): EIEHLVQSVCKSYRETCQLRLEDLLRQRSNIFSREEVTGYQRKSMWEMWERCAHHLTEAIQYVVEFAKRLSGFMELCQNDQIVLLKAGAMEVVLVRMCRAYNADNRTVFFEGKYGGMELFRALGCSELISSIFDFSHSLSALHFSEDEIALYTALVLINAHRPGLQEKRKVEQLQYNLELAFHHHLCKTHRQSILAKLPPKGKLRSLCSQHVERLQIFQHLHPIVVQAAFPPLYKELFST
Excerpt: GAL4-RORγ Transactivation
The RORγ transactivation model was developed from the line HG5LN, which is a HeLa line that stably expresses a luciferase reporter gene controlled by a pentamer of the GAL4 recognition domain of yeast and of a β-globin promoter. The HG5LN line was stably transfected by the DNA-binding domain (DBD) of GAL4 fused to the ROR gamma ligand-binding domain (LBD). Molecules that inhibit the ROR gamma constitutive activity reduce the luciferase expression, thus leading to a reduction in the emitted luminescence.
The cells are seeded in 384-well plates (5000 cells in 45 μL/well of culture medium containing 10% fetal calf serum) and incubated for 4 hours at 37° C., 5% CO2. 5 μL of the test molecules (compounds described in the tables described above) are then added to each well and the plates are incubated for 18 hours at a temperature of 37° C. under 5% of CO2. 20 μL of luciferase substrate (Promega) are added to each well and the luminescence emitted is read by a microplate reader.
The luminescence units (“RLU”) are normalized by positive controls (“POS” containing a saturated concentration of N-(2,2,2-trifluoroethyl)-N-[4-[2,2,2-trifluoro-1-hydroxy-1-(trifluoromethyl)ethyl]phenyl]benzenesulfonamide) and negative controls (“NEG” containing DMSO): % inhibition=((RLU-NEG)*100)/(POS-NEG). The IC50 values are calculated from a 4-parameter logistic model using the XLFit software (IDBS).

[1] = system: IL-17A secretion by CD4+ cells; assay: IL-17A secretion by CD4+ cells (HTRF); assay type: cell-based; conditions: human CD4+ cells activated with anti-CD3 and anti-CD28, 4 days of incubation, IL-17A by HTRF, read-out: IC50 hCD4/IL17
Procedure: This model allows measurement of the effect of inhibitors on IL-17A secretion by CD4+ cells. The cells are frozen CD4+ cells (STEMCELL, #70026), isolated from peripheral human blood and activated with anti-CD3 and anti-CD28 antibodies. The amount of IL-17A secreted is measured by the TR-FRET (kit HTRF® Human Interleukin 17A (Cisbio, #64H17PEC)) technology.
The cells are rapidly thawed, resuspended in their culture medium (RPMI inactivated 10% FCS) supplemented with soluble anti-CD28 antibodies and seeded (100 000 cells/well) in 96-well plates precoated with anti-CD3 antibodies. The cells are then treated with the ranges of inhibitors to be tested (from 1000 nM to 0.05 nM, 0.1% DMSO). After 4 days of incubation, the HTRF signal is measured using a microplate reader (excitation=337 nm, λemission=620/665 nm). The ratios obtained (665/620) are normalized relative to the positive control (cells activated with anti-CD3 and anti-CD28, 0.1% DMSO). The IC50 values are calculated from a 4-parameter logistic model using the XLFit software (IDBS).

pIC50 (hRORg)	pIC50 ([1]; Homo sapiens, 96 h)	pIC50 [1]	Structure (SMILES)
< 6.00			CCc1ccc(N(CC(C)C)S(=O)(=O)c2ccc3c(c2)n(CC2CCOCC2)c(=O)n3C)cc1 [Compound 1, 1-methyl-2-oxo-3-(tetrahydropyran-4-ylmethyl)-2,3-dihydro-1H-benzimidazole-5-sulfonic acid (4-ethylphenyl)isobutylamide]
> 7.00	> 7.00		CCc1ccc(N(CC(C)C)S(=O)(=O)c2ccc3c(c2)[nH]c(=O)n3CC2CCOCC2)cc1 [Compound 2, 2-oxo-1-(tetrahydropyran-4-ylmethyl)-2,3-dihydro-1H-benzimidazole-5-sulfonic acid (4-ethylphenyl)isobutylamide]
6.00 to 7.00	> 7.00		CCc1ccc(N(CC(C)C)S(=O)(=O)c2ccc3[nH]c(=O)n(CC4CCOCC4)c3c2)cc1 [Compound 3, 2-oxo-3-(tetrahydropyran-4-ylmethyl)-2,3-dihydro-1H-benzimidazole-5-sulfonic acid (4-ethylphenyl)isobutylamide]
> 7.00	> 7.00		CCc1ccc(N(CC(C)C)S(=O)(=O)c2ccc3c(c2)[nH]c(=O)n3CC2(C)CCOCC2)cc1 [Compound 4, 1-(4-methyltetrahydropyran-4-ylmethyl)-2-oxo-2,3-dihydro-1H-benzimidazole-5-sulfonic acid (4-ethylphenyl)isobutylamide]
> 7.00	> 7.00		CCc1ccc(N(CC(C)C)S(=O)(=O)c2ccc3c(c2)[nH]c(=O)n3CC2(F)CCOCC2)cc1 [Compound 5, 1-(4-fluorotetrahydropyran-4-ylmethyl)-2-oxo-2,3-dihydro-1H-benzimidazole-5-sulfonic acid (4-ethylphenyl)isobutylamide]
> 7.00			CCc1ccc(N(CC(C)C)S(=O)(=O)c2ccc3c(c2)[nH]c(=O)n3C[C@H]2[C@@H]3COC[C@@H]32)cc1 [Compound 6, 1-[(1R,5S,6S)-1-(3-oxabicyclo[3.1.0]hex-6-yl)methyl]-2-oxo-2,3-dihydro-1H-benzimidazole-5-sulfonic acid (4-ethylphenyl)isobutylamide]
> 7.00	> 7.00		CCc1ccc(N(CC(C)C)S(=O)(=O)c2ccc3c(c2)[nH]c(=O)n3CC2COC2)cc1 [Compound 7, 1-oxetan-3-ylmethyl-2-oxo-2,3-dihydro-1H-benzimidazole-5-sulfonic acid (4-ethylphenyl)isobutylamide]
> 7.00			CCc1ccc(N(CC(C)C)S(=O)(=O)c2ccc3c(c2)[nH]c(=O)n3CC2COC(=O)O2)cc1 (stereo not shown) [Compound 8, 2-oxo-1-(2-oxo[1,3]dioxolan-4-ylmethyl)-2,3-dihydro-1H-benzimidazole-5-sulfonic acid (4-ethylphenyl)isobutylamide]
< 6.00			CCc1ccc(N(CC(C)C)S(=O)(=O)c2ccc3c(c2)[nH]c(=O)n3CC2CNC(=O)O2)cc1 (stereo not shown) [Compound 9, 2-oxo-1-(2-oxooxazolidin-5-ylmethyl)-2,3-dihydro-1H-benzimidazole-5-sulfonic acid (4-ethylphenyl)isobutylamide]
6.00 to 7.00	> 7.00		CCc1ccc(N(CC(C)C)S(=O)(=O)c2ccc3c(c2)[nH]c(=O)n3Cc2ccncc2)cc1 [Compound 10, 2-oxo-1-pyridin-4-ylmethyl-2,3-dihydro-1H-benzimidazole-5-sulfonic acid (4-ethylphenyl)isobutylamide]
< 6.00			CCc1ccc(N(CC(C)C)S(=O)(=O)c2ccc3c(c2)[nH]c(=O)n3C2CCOCC2)cc1 [Compound 11, 2-oxo-1-(tetrahydropyran-4-yl)-2,3-dihydro-1H-benzimidazole-5-sulfonic acid (4-ethylphenyl)isobutylamide]
< 6.00			CCc1ccc(N(CC(C)C)S(=O)(=O)c2ccc3c(c2)[nH]c(=O)n3C2CCN(C(=O)OC(C)(C)C)CC2)cc1 [Compound 12, tert butyl ester of 4-{5-[(4-ethylphenyl)isobutylsulfamoyl]-2-oxo-2,3-dihydrobenzimidazol-1-yl}piperidine-1-carboxylic acid]
< 6.00			CCc1ccc(N(CC(C)C)S(=O)(=O)c2ccc3c(c2)[nH]c(=O)n3C2CCNCC2)cc1 [Compound 13, 2-oxo-1-piperidin-4-yl-2,3-dihydro-1H-benzimidazole-5-sulfonic acid (4-ethylphenyl)isobutylamide]
< 6.00			CCc1ccc(N(CC(C)C)S(=O)(=O)c2ccc3c(c2)[nH]c(=O)n3C2CCN(S(C)(=O)=O)CC2)cc1 [Compound 14, 1-(1-methanesulfonylpiperidin-4-yl)-2-oxo-2,3-dihydro-1H-benzimidazole-5-sulfonic acid (4-ethylphenyl)isobutylamide]
> 7.00	> 7.00		CCc1ccc(N(C2CCCC2)S(=O)(=O)c2ccc3c(c2)[nH]c(=O)n3CC2CCOCC2)cc1 [Compound 15, 2-oxo-1-(tetrahydropyran-4-ylmethyl)-2,3-dihydro-1H-benzimidazole-5-sulfonic acid (4-ethylphenyl)cyclopentylamide]
> 7.00	> 7.00		CCc1ccc(N(C(CC)CC)S(=O)(=O)c2ccc3c(c2)[nH]c(=O)n3CC2CCOCC2)cc1 [Compound 16, 2-oxo-1-(tetrahydropyran-4-ylmethyl)-2,3-dihydro-1H-benzimidazole-5-sulfonic acid (4-ethylphenyl)(1-ethylpropyl)amide]
> 7.00	> 7.00		Cc1ccc(N(CC(C)C)S(=O)(=O)c2ccc3c(c2)[nH]c(=O)n3CC2CCOCC2)c(C)c1 [Compound 17, 2-oxo-1-(tetrahydropyran-4-ylmethyl)-2,3-dihydro-1H-benzimidazole-5-sulfonic acid (2,4-dimethylphenyl)isobutylamide]
> 7.00	> 7.00		Cc1ccc(N(C2CCCC2)S(=O)(=O)c2ccc3c(c2)[nH]c(=O)n3CC2CCOCC2)c(C)c1 [Compound 18, 2-oxo-1-(tetrahydropyran-4-ylmethyl)-2,3-dihydro-1H-benzimidazole-5-sulfonic acid cyclopentyl(2,4-dimethylphenyl)amide]
> 7.00	> 7.00		CCC(CC)N(c1ccc(C)cc1C)S(=O)(=O)c1ccc2c(c1)[nH]c(=O)n2CC1CCOCC1 [Compound 19, 2-oxo-1-(tetrahydropyran-4-ylmethyl)-2,3-dihydro-1H-benzimidazole-5-sulfonic acid (2,4-dimethylphenyl)(1-ethylpropyl)amide]
> 7.00	> 7.00		CCc1ccc(N(CC(C)C)S(=O)(=O)c2ccc3c(c2)[nH]c(=O)n3CC2CCS(=O)(=O)CC2)cc1 [Compound 20, 1-(1,1-dioxohexahydro-1λ^6-thiopyran-4-ylmethyl)-2-oxo-2,3-dihydro-1H-benzimidazole-5-sulfonic acid (4-ethylphenyl)isobutylamide]
6.00 to 7.00		6.00 to 7.00	CCc1ccc(N(CC(C)C)S(=O)(=O)c2ccc3[nH]c(=O)n(CC4CCOCC4)c3c2)cc1 [Compound 21, 2-oxo-3-(tetrahydropyran-4-ylmethyl)-2,3-dihydro-1H-benzimidazole-5-sulfonic acid (4-ethylphenyl)isobutylamide]
